Source: article PMC5218480 (PLoS ONE, 2017)

Tested on: MV-4-11 cells
Assay: Gene expression microarray analysis (Affymetrix PrimeView) and GSEA
Format: cell-based, human
Set-up: RFU PODN (11730768_x_at) / Fold change /veh PODN (11730768_x_at) / RFU LINC00158 (11744669_a_at) / Fold change /veh LINC00158 (11744669_a_at) / RFU DUSP10 (11751237_a_at) / Fold change /veh DUSP10 (11751237_a_at) / RFU ID3 (11757404_x_at) / Fold change /veh ID3 (11757404_x_at) / RFU PLEKHG5 (11737974_s_at) / Fold change /veh PLEKHG5 (11737974_s_at) / RFU LRRC4B (11730491_at) / Fold change /veh LRRC4B (11730491_at) / RFU GIMAP4 (11747438_a_at) / Fold change /veh GIMAP4 (11747438_a_at) / RFU KRT8 (11758183_x_at) / Fold change /veh KRT8 (11758183_x_at) / RFU CNN1 (11734310_a_at) / Fold change /veh CNN1 (11734310_a_at) / RFU VPS37D (11726825_at) / Fold change /veh VPS37D (11726825_at) / RFU C10orf10 (11716522_x_at) / Fold change /veh C10orf10 (11716522_x_at) / RFU KIR2DL2 /// KIR2DL4 /// KIR2DL5A /// KIR2DL5B /// KIR2DS1 /// KIR2DS2 /// KIR2DS3 /// KIR2DS4 /// KIR3DL3 /// KIR3DL3 /// KIR3DS1 (11738374_at) / Fold change /veh KIR2DL2 /// KIR2DL4 /// KIR2DL5A /// KIR2DL5B /// KIR2DS1 /// KIR2DS2 /// KIR2DS3 /// KIR2DS4 /// KIR3DL3 /// KIR3DL3 /// KIR3DS1 (11738374_at) / RFU C1QL1 (11718748_at) / Fold change /veh C1QL1 (11718748_at) / RFU TMPRSS4 (11747572_a_at) / Fold change /veh TMPRSS4 (11747572_a_at) / RFU HAMP (11756126_x_at) / Fold change /veh HAMP (11756126_x_at) / RFU RNFT2 (11725882_a_at) / Fold change /veh RNFT2 (11725882_a_at) / RFU NR4A2 (11747474_a_at) / Fold change /veh NR4A2 (11747474_a_at) / RFU ABCC12 (11746883_a_at) / Fold change /veh ABCC12 (11746883_a_at) / RFU TMEM136 (11760407_x_at) / Fold change /veh TMEM136 (11760407_x_at) / RFU CLDN22 /// WWC2 (11732394_at) / Fold change /veh CLDN22 /// WWC2 (11732394_at) / RFU HLA-DPB1 (11760878_x_at) / Fold change /veh HLA-DPB1 (11760878_x_at) / RFU SPINT1 (11716480_a_at) / Fold change /veh SPINT1 (11716480_a_at) / RFU GAP43 (11754022_s_at) / Fold change /veh GAP43 (11754022_s_at) / RFU A4GNT (11735810_at) / Fold change /veh A4GNT (11735810_at) / RFU PRB3 (11715151_x_at) / Fold change /veh PRB3 (11715151_x_at) / RFU TUBB4B (11761932_at) / Fold change /veh TUBB4B (11761932_at) / RFU CAPN14 (11732068_a_at) / Fold change /veh CAPN14 (11732068_a_at) / RFU TMCC2 (11721928_a_at) / Fold change /veh TMCC2 (11721928_a_at) / RFU IRGQ (11745062_a_at) / Fold change /veh IRGQ (11745062_a_at) / RFU FAM174B (11720279_a_at) / Fold change /veh FAM174B (11720279_a_at) / RFU TMPRSS4 (11748680_a_at) / Fold change /veh TMPRSS4 (11748680_a_at) / RFU FAM212B (11763350_a_at) / Fold change /veh FAM212B (11763350_a_at) / RFU PLEKHG5 (11743358_a_at) / Fold change /veh PLEKHG5 (11743358_a_at) / RFU ZSCAN30 (11745921_a_at) / Fold change /veh ZSCAN30 (11745921_a_at) / RFU CMKLR1 (11741424_a_at) / Fold change /veh CMKLR1 (11741424_a_at) / RFU LOC101060620 /// MAPK8IP1 (11723275_at) / Fold change /veh LOC101060620 /// MAPK8IP1 (11723275_at) / RFU SPTSSB (11747773_x_at) / Fold change /veh SPTSSB (11747773_x_at) / RFU PRSS12 (11739890_at) / Fold change /veh PRSS12 (11739890_at) / RFU BIN1 (11741810_x_at) / Fold change /veh BIN1 (11741810_x_at) / RFU WNT11 (11732464_a_at) / Fold change /veh WNT11 (11732464_a_at) / RFU C10orf10 (11716521_a_at) / Fold change /veh C10orf10 (11716521_a_at) / RFU C5orf56 (11738089_at) / Fold change /veh C5orf56 (11738089_at) / RFU CYB561 (11721691_x_at) / Fold change /veh CYB561 (11721691_x_at) / RFU ANKRD19P (11752326_a_at) / Fold change /veh ANKRD19P (11752326_a_at) / RFU OR2T12 /// OR2T33 /// OR2T8 (11738714_s_at) / Fold change /veh OR2T12 /// OR2T33 /// OR2T8 (11738714_s_at) / RFU VCAN (11748164_a_at) / Fold change /veh VCAN (11748164_a_at) / RFU JSRP1 (11732532_at) / Fold change /veh JSRP1 (11732532_at) / RFU KRTAP10-11 (11738290_x_at) / Fold change /veh KRTAP10-11 (11738290_x_at) / RFU MYO3A (11730013_a_at) / Fold change /veh MYO3A (11730013_a_at) / RFU EBF3 (11725865_a_at) / Fold change /veh EBF3 (11725865_a_at) / RFU CAMK2N1 (11719241_x_at) / Fold change /veh CAMK2N1 (11719241_x_at) / RFU C5orf56 (11738088_a_at) / Fold change /veh C5orf56 (11738088_a_at) / RFU OLFML3 (11715873_a_at) / Fold change /veh OLFML3 (11715873_a_at) / RFU LOC100653217 /// NTM (11731650_a_at) / Fold change /veh LOC100653217 /// NTM (11731650_a_at) / RFU MAPK11 (11762145_a_at) / Fold change /veh MAPK11 (11762145_a_at) / RFU FIZ1 (11724087_x_at) / Fold change /veh FIZ1 (11724087_x_at) / RFU OASL (11726364_x_at) / Fold change /veh OASL (11726364_x_at) / RFU SOX15 (11748057_x_at) / Fold change /veh SOX15 (11748057_x_at) / RFU CD79A (11719716_a_at) / Fold change /veh CD79A (11719716_a_at) / RFU HIST1H1D (11736915_at) / Fold change /veh HIST1H1D (11736915_at) / RFU CASKIN2 (11723855_a_at) / Fold change /veh CASKIN2 (11723855_a_at) / RFU LOC730098 (11760151_x_at) / Fold change /veh LOC730098 (11760151_x_at) / RFU OR4N2 (11742367_at) / Fold change /veh OR4N2 (11742367_at) / RFU PRRT2 (11749266_a_at) / Fold change /veh PRRT2 (11749266_a_at) / RFU SNX32 (11753110_a_at) / Fold change /veh SNX32 (11753110_a_at) / RFU CDHR5 (11726645_a_at) / Fold change /veh CDHR5 (11726645_a_at) / RFU RCAN1 (11760418_a_at) / Fold change /veh RCAN1 (11760418_a_at) / RFU FAM167A (11723789_a_at) / Fold change /veh FAM167A (11723789_a_at) / RFU FAM26E (11764081_at) / Fold change /veh FAM26E (11764081_at) / RFU ISYNA1 (11749810_s_at) / Fold change /veh ISYNA1 (11749810_s_at) / RFU ACY1 (11761880_at) / Fold change /veh ACY1 (11761880_at) / RFU 11764098_at / Fold change /veh 11764098_at / RFU SAMD14 (11745864_x_at) / Fold change /veh SAMD14 (11745864_x_at) / RFU NPB (11741838_a_at) / Fold change /veh NPB (11741838_a_at) / RFU TMPRSS6 (11731388_a_at) / Fold change /veh TMPRSS6 (11731388_a_at) / RFU KRTAP10-2 (11738614_at) / Fold change /veh KRTAP10-2 (11738614_at) / RFU ARHGAP8 /// PRR5-ARHGAP8 (11727945_x_at) / Fold change /veh ARHGAP8 /// PRR5-ARHGAP8 (11727945_x_at) / RFU KRTAP5-7 /// NADSYN1 (11734609_at) / Fold change /veh KRTAP5-7 /// NADSYN1 (11734609_at) / RFU RASL12 (11751679_a_at) / Fold change /veh RASL12 (11751679_a_at) / RFU CDKN2B (11736163_a_at) / Fold change /veh CDKN2B (11736163_a_at) / RFU PRF1 (11729649_at) / Fold change /veh PRF1 (11729649_at) / RFU, ZNF638 /// ZNF638-IT1 / Fold change vs veh, ZNF638 /// ZNF638-IT1 / RFU, PANK3 / Fold change vs veh, PANK3 / RFU, SH3YL1 / Fold change vs veh, SH3YL1 / RFU, ZEB2 / Fold change vs veh, ZEB2 / RFU, NRIP1 / Fold change vs veh, NRIP1 / RFU, PTTG1IP / Fold change vs veh, PTTG1IP / RFU, CAPN2 / Fold change vs veh, CAPN2 / RFU, MED14 / Fold change vs veh, MED14 / RFU, SNORA58 / Fold change vs veh, SNORA58 / RFU, C1orf63 / Fold change vs veh, C1orf63 / RFU, LRRFIP1 / Fold change vs veh, LRRFIP1 / RFU, NDUFAF7 / Fold change vs veh, NDUFAF7 / RFU, SLC12A2 / Fold change vs veh, SLC12A2 / RFU, IBTK / Fold change vs veh, IBTK / RFU, ESF1 / Fold change vs veh, ESF1 / Fold change vs veh, TMEM50B / RFU, TAOK1 / Fold change vs veh, TAOK1 / RFU, ACBD3 / Fold change vs veh, ACBD3 / RFU, TMA16 / Fold change vs veh, TMA16 / RFU, RWDD3 / Fold change vs veh, RWDD3 / RFU, BCAT1 / Fold change vs veh, BCAT1 / RFU, EDEM3 / Fold change vs veh, EDEM3 / RFU, TMEM33 / Fold change vs veh, TMEM33 / RFU, WDR75 / Fold change vs veh, WDR75 / RFU, AHCTF1 / Fold change vs veh, AHCTF1 / RFU, TFRC / Fold change vs veh, TFRC / RFU, ZDHHC17 / Fold change vs veh, ZDHHC17 / RFU, NOM1 / Fold change vs veh, NOM1 / RFU, ARL8B / Fold change vs veh, ARL8B / RFU, ZBTB11 / Fold change vs veh, ZBTB11 / RFU, TAMM41 / Fold change vs veh, TAMM41 / RFU, KIAA1704 /// LOC100996395 / Fold change vs veh, KIAA1704 /// LOC100996395 / RFU, ING1 / Fold change vs veh, ING1 / RFU, TRMT61B / Fold change vs veh, TRMT61B / RFU, FUBP3 / Fold change vs veh, FUBP3 / RFU, TP53 / Fold change vs veh, TP53 / RFU, TNKS2 / Fold change vs veh, TNKS2 / RFU, ZFP14 / Fold change vs veh, ZFP14 / RFU, ACTR2 / Fold change vs veh, ACTR2 / RFU, PPP3R1 / Fold change vs veh, PPP3R1 / RFU, PIK3R1 / Fold change vs veh, PIK3R1 / RFU, HNRNPA1 / Fold change vs veh, HNRNPA1 / RFU, RNF170 / Fold change vs veh, RNF170 / RFU, ZNF28 / Fold change vs veh, ZNF28 / RFU, RNGTT / Fold change vs veh, RNGTT / RFU, OGT / Fold change vs veh, OGT / RFU, BRD1 / Fold change vs veh, BRD1 / RFU, MARS / Fold change vs veh, MARS / RFU, ZNF655 / Fold change vs veh, ZNF655 / RFU, FAHD1 / Fold change vs veh, FAHD1 / RFU, BDP1 / Fold change vs veh, BDP1 / RFU, LRRCC1 / Fold change vs veh, LRRCC1 / RFU, ARID1A / Fold change vs veh, ARID1A / RFU, ZNF146 / Fold change vs veh, ZNF146 / RFU, ZNF330 / Fold change vs veh, ZNF330 / RFU, GPN3 / Fold change vs veh, GPN3 / RFU, C9orf123 / Fold change vs veh, C9orf123 / RFU, N4BP2L2 / Fold change vs veh, N4BP2L2 / RFU, ARFIP1 / Fold change vs veh, ARFIP1 / RFU, FAM179B / Fold change vs veh, FAM179B / RFU, BCL10 / Fold change vs veh, BCL10 / RFU, UHRF1BP1L / Fold change vs veh, UHRF1BP1L / RFU, BET1 / Fold change vs veh, BET1 / RFU, CNOT2 / Fold change vs veh, CNOT2 / RFU, ZNF268 / Fold change vs veh, ZNF268 / Fold change vs veh, ZNF507 / RFU, DGCR2 / Fold change vs veh, DGCR2 / RFU, WDSUB1 / Fold change vs veh, WDSUB1 / Fold change vs veh, HSP90B1 /// MIR3652 / RFU, ADSS / Fold change vs veh, ADSS / RFU, GK / Fold change vs veh, GK / RFU, ZNF148 / Fold change vs veh, ZNF148 / RFU, TAF9 / Fold change vs veh, TAF9 / RFU, SLC1A5 / Fold change vs veh, SLC1A5 / RFU, SLMO2 / Fold change vs veh, SLMO2 / RFU, ABCC4 / Fold change vs veh, ABCC4 / RFU, LOC101060439 /// RAP1B / Fold change vs veh, LOC101060439 /// RAP1B / RFU, RFX7 / Fold change vs veh, RFX7 / RFU, GTPBP10 / Fold change vs veh, GTPBP10 / RFU, CNEP1R1 / Fold change vs veh, CNEP1R1 / RFU, BIVM-ERCC5 /// ERCC5 / Fold change vs veh, BIVM-ERCC5 /// ERCC5 / RFU, ILF3 / Fold change vs veh, ILF3 / RFU 11762660_at / Fold change /veh 11762660_at / RFU VCAN (11757783_s_at) / Fold change /veh VCAN (11757783_s_at) / RFU DDX43 (11728927_at) / Fold change /veh DDX43 (11728927_at) / RFU KRT8 (11758188_x_at) / Fold change /veh KRT8 (11758188_x_at) / RFU NKD1 (11759106_at) / Fold change /veh NKD1 (11759106_at) / RFU SRD5A1 (11742802_a_at) / Fold change /veh SRD5A1 (11742802_a_at) / RFU TPSAB1 /// TPSB2 (11721975_s_at) / Fold change /veh TPSAB1 /// TPSB2 (11721975_s_at) / RFU GSTM3 (11746129_a_at) / Fold change /veh GSTM3 (11746129_a_at) / RFU IL23R (11737362_x_at) / Fold change /veh IL23R (11737362_x_at) / RFU TMEM51 (11727254_a_at) / Fold change /veh TMEM51 (11727254_a_at) / RFU PIWIL2 (11732686_x_at) / Fold change /veh PIWIL2 (11732686_x_at) / RFU ORM1 (11744905_x_at) / Fold change /veh ORM1 (11744905_x_at) / RFU CCDC152 (11743942_at) / Fold change /veh CCDC152 (11743942_at) / RFU ECM1 (11717891_a_at) / Fold change /veh ECM1 (11717891_a_at) / RFU IL23R (11748794_a_at) / Fold change /veh IL23R (11748794_a_at) / RFU TNFAIP8L3 (11732012_x_at) / Fold change /veh TNFAIP8L3 (11732012_x_at) / RFU MBOAT4 (11741988_at) / Fold change /veh MBOAT4 (11741988_at) / RFU 11764193_at / Fold change /veh 11764193_at / RFU TMEM53 (11763286_at) / Fold change /veh TMEM53 (11763286_at) / RFU MAGEB2 (11727129_at) / Fold change /veh MAGEB2 (11727129_at) / RFU TMEM200A (11744735_a_at) / Fold change /veh TMEM200A (11744735_a_at) / RFU CCDC152 (11751479_a_at) / Fold change /veh CCDC152 (11751479_a_at) / RFU FAM211A (11726209_a_at) / Fold change /veh FAM211A (11726209_a_at) / RFU RGS16 (11746705_a_at) / Fold change /veh RGS16 (11746705_a_at) / RFU VCAN (11755009_s_at) / Fold change /veh VCAN (11755009_s_at) / RFU RHOB (11743442_s_at) / Fold change /veh RHOB (11743442_s_at) / RFU RGS16 (11720943_a_at) / Fold change /veh RGS16 (11720943_a_at) / RFU RGS16 (11720944_at) / Fold change /veh RGS16 (11720944_at) / RFU, VPS4B / Fold change vs veh, VPS4B / RFU, CREB1 / Fold change vs veh, CREB1 / RFU, DNAJC13 / Fold change vs veh, DNAJC13 / RFU, GNAQ / Fold change vs veh, GNAQ / RFU, CDK5R1 / Fold change vs veh, CDK5R1 / RFU, ZRANB3 / Fold change vs veh, ZRANB3 / RFU, CUL4A / Fold change vs veh, CUL4A / RFU, CCNY / Fold change vs veh, CCNY / RFU, UFL1 / Fold change vs veh, UFL1 / RFU, COG3 / Fold change vs veh, COG3 / RFU, DIAPH2 / Fold change vs veh, DIAPH2 / RFU, SKA2 / Fold change vs veh, SKA2 / RFU, AFF3 / Fold change vs veh, AFF3 / RFU, LMF1 / Fold change vs veh, LMF1 / RFU, IPO11 / Fold change vs veh, IPO11 / RFU, DFFB / Fold change vs veh, DFFB / RFU, FOXP1 / Fold change vs veh, FOXP1 / RFU, CARD8 / Fold change vs veh, CARD8 / RFU, STRN3 / Fold change vs veh, STRN3 / RFU, ADK / Fold change vs veh, ADK / RFU, RASSF2 / Fold change vs veh, RASSF2 / RFU, WIPF1 / Fold change vs veh, WIPF1 / RFU, LARP1B / Fold change vs veh, LARP1B / RFU, RASA1 / Fold change vs veh, RASA1 / RFU, RB1 / Fold change vs veh, RB1 / RFU, PPFIA1 / Fold change vs veh, PPFIA1 / RFU, MAT2A / Fold change vs veh, MAT2A / RFU, CCT5 / Fold change vs veh, CCT5 / RFU, WDR92 / Fold change vs veh, WDR92 / RFU, CUX1 / Fold change vs veh, CUX1 / RFU, TTC7A / Fold change vs veh, TTC7A / RFU, TMEM135 / Fold change vs veh, TMEM135 / RFU, DEPTOR / Fold change vs veh, DEPTOR / RFU, CPM / Fold change vs veh, CPM / RFU, DNAJB6 / Fold change vs veh, DNAJB6 / RFU, CACNA2D3 / Fold change vs veh, CACNA2D3 / RFU, DTX4 / Fold change vs veh, DTX4 / RFU, TFCP2 / Fold change vs veh, TFCP2 / RFU, GMCL1 /// GMCL1P1 / Fold change vs veh, GMCL1 /// GMCL1P1 / RFU, AEBP2 / Fold change vs veh, AEBP2 / RFU, SNHG1 /// SNORD22 /// SNORD25 /// SNORD26 /// SNORD27 /// SNORD28 /// SNORD29 /// SNORD31 / Fold change vs veh, SNHG1 /// SNORD22 /// SNORD25 /// SNORD26 /// SNORD27 /// SNORD28 /// SNORD29 /// SNORD31 / Fold change (Aza/veh), C12orf56 (ProbeSet 11735607_a_at) / Fold change (ACY-1035/veh), C12orf56 (ProbeSet 11735607_a_at) / Fold change (Aza/veh), FGFR1OP (ProbeSet 11751329_s_at) / Fold change (ACY-1035/veh), FGFR1OP (ProbeSet 11751329_s_at) / Fold change (Aza/veh), VPS36 (ProbeSet 11739960_a_at) / Fold change (ACY-1035/veh), VPS36 (ProbeSet 11739960_a_at) / RFU SYPL1 (11715823_x_at) / Fold change /veh SYPL1 (11715823_x_at) / RFU IGFBP7 (11715501_s_at) / Fold change /veh IGFBP7 (11715501_s_at) / RFU REEP3 (11722064_at) / Fold change /veh REEP3 (11722064_at) / RFU IGLL1 (11728026_x_at) / Fold change /veh IGLL1 (11728026_x_at): dose or concentration left out as unconfirmed
Details: MV-4-11 cells, 48 hours

For `Nc1ccc(-c2cccs2)cc1NC(=O)c1ccc2c(c1)cc(C1CC1)n2CCN1CCOCC1` [ACY-1035], the “RFU PRB3 (11715151_x_at)” value was 8.09 RFU.
